In patent EP4810052A2, “HCRHR2 SELECTIVE POLYPEPTIDES” (Gubra A/S, priority 2023, dated 2026):
Read-outs that look alike come from different tables or passages of the source. Starred links: 1 amine or outer side, 2 acyl side, 3 side chain; linkers in the order of their positions; H or OH if unused. Non-standard residues stand in square brackets, D forms with d. Residues, ends and D or L forms follow the SMILES beside them. Groups on a side chain read outwards from the residue. *: point of attachment. C20 diacid = O=C(O)CCCCCCCCCCCCCCCCCCC(=O)*; γGlu = O=C(O)[C@H](CCC(=O)[*:2])N[*:1]; Nle = CCCC[C@H](N)C(=O)O; AEEA = NCCOCCOCC(=O)O; Aib = CC(C)(N)C(=O)O

Columns and labels:
[1] = Thioflavin T fibril formation assay of purified peptides; type: physicochemical; set-up: key: Amyloid fibril formation detected by an increase in ThT fluorescence was denoted with "Yes"; samples without increasing ThT fluorescence hence not forming amyloid fibrils were denoted "No"
Method in brief: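 Fibril formation read as rising ThT emission at 480 nm (450 nm excitation), 4 µM ThT, over 96 h at 40°C with alternating 5-min rest and 700 rpm shaking cycles, in triplicate. Samples were 200 µM compound in 50 mM phosphate at various pH values, or co-formulated at 200 µM in semaglutide product at pH 7.4.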

[2] = Chemical stability of purified peptides (RP-UHPLC main peak purity loss); type: physicochemical
Method in brief: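 Purity loss is the drop in RP-UHPLC main-peak area fraction (215 nm detection, C8 column at 50 °C) from time zero to day 14 and/or day 28 at 40 °C. Samples held roughly 1.0 mg/ml peptide in 50 mM phosphate, pH 7.5, with other pH targets also tested.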

[3] = pH 7.5
hCRHR2 = biological target: T1, hCRHR2 (Homo sapiens, UniProt Q13324); test: HTRF cAMP assay, determination of hCRHR2 potency (peptide libraries 5 conc., purified peptides 11 conc.); type: cell-based; conditions: for EC50: read-out: hCRHR2 EC50
T1 sequence (Q13324 1-411): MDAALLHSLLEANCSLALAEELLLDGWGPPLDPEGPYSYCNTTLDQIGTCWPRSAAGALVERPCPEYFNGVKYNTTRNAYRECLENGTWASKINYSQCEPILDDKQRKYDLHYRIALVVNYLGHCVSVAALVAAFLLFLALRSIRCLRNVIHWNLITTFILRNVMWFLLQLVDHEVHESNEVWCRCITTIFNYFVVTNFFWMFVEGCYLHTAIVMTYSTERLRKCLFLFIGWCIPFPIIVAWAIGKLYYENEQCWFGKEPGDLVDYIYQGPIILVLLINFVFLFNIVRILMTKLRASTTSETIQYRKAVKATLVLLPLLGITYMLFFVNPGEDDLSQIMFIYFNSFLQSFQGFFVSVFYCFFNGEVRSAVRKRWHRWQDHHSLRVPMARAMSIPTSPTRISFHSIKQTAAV
Method in brief: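 Frozen stocks of hCRHR2-expressing CHO-K1 cells, thawed just before testing, received peptide agonists in suspension; cAMP quantified by competitive HTRF immunoassay, with curves fitted by nonlinear regression (variable slope) for EC50.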

PK in rats = type: in vivo; set-up: T½ / MRT: unit not given here; conditions: Rat
Description: Lean male Sprague Dawley rats (RJHan:SD) were obtained from JanVier (JanVier Labs, France) at 7 weeks of age. The animals were pair housed until randomization under a 12/12 h dark-light cycle, light off at 3 PM. Room temperature was controlled to 22°C ± 1°C, with 60 % ± 20% humidity.
Animals had ad libitum access to regular rodent chow (Altromin 1324, Brogaarden, Denmark) and tap water.
After 2 weeks of acclimatization, the animals were single housed and randomized into treatment groups (n = 3 per group) based on body weight on study day -3. On study day 1, animals were dosed 50 nmol/kg IV and SC in combination of two peptides. Plasma samples were collected for PK analysis at times 0.17, 1, 3, 6, 24, 30, 48, 72 and 96 hours post dosing. Plasma samples were analyzed using LC-MSMS and PK parameters were estimated by Non-Compartmental Analysis (NCA).

hCRHR1 = biological target: T2, hCRHR1 (Homo sapiens, UniProt P34998); test: HTRF cAMP assay, determination of hCRHR1 potency (peptide libraries 5 conc., purified peptides 11 conc.); type: cell-based; conditions: read-out: hCRHR1 EC50
T2 sequence (P34998 24-415): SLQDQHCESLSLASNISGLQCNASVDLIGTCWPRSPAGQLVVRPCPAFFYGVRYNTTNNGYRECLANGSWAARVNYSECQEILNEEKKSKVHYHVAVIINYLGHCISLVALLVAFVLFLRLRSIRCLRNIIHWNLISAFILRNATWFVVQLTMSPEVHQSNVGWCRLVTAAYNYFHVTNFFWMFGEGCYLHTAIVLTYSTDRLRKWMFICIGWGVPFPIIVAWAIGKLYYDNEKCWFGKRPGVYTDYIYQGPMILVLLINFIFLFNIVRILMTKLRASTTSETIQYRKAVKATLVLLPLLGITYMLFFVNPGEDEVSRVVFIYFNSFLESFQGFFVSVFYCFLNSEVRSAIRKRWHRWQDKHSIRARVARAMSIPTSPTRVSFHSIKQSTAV
Method in brief: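 Cellular cAMP was read by time-resolved FRET between d2-labelled cAMP and cryptate anti-cAMP antibody. The cells were freshly thawed suspension CHO-K1 cells stably expressing human CRHR1.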

[4] = Dynamic Light Scattering (DLS) of peptide oligomerisation/particle formation; type: physicochemical; conditions: average of three replica
Description: Samples were prepared by dissolving 800 nmol of each peptide in 400 µl 50 mM phosphate pH 8.0 to a concentration of 2000 µM (ca 10 mg/ml). After fully dissolution for 2 hours on a rocking table, samples were adjusted to pH 7.5 and filtrated through a 0.2 µm Whatman Anotop filter. Comparators were commercially available liraglutide drug product (Victoza®, Novo Nordisk) pH 8.2, and an aliquot of this drug product adjusted to pH 6.7. These samples were filtrated through a 0.02 µm Whatman Anotop filter.
Samples were pipetted as triplicate of 30 µl to an Aurora 384 well microtiter plate, which was centrifuged for 2 minutes at 2200 rpm and then sealed with a Thermo sealing tape 235307. DLS measurements were done in a Wyatt DynaPro platereader III with the following parameters:
The microtiter plate was incubated in a Grant-bio Thermo Shaker PHMP-4 at 40°C with 700 rpm continuous shaking before subsequent DLS measurements. Data analysis was done using Wyatt Dynamics software ver. 7.10.1.21.
Samples were prepared and measured as described in procedure. The hydrodynamic radii (Rh) and associated polydispersity (PD) resulting from cumulant analysis (assuming one species) are shown in the Table 8 as averages of three replica. T0 indicates the measurement at time zero after sample preparation; T5 indicates the measurements of five days of incubation as described above.

[5] = pH 7.5, 40°C, 14 days, first value of cell
[6] = pH 7.5, 40°C, 28 days, second value of cell
[7] = purified peptides, CHO-K1 cells stably expressing hCRHR2, cAMP HTRF
[8] = purified peptides, CHO-K1 cells stably expressing hCRHR1, cAMP HTRF
[9] = T0, time zero after sample preparation
[10] = T5, five days incubation at 40°C with continuous shaking

Compound	Fibrillation (pH 7.5) ([1]; pH 7.5)	Chemical stability at pH 7.5 after 14 days at 40°C (% degradation) ([2]; pH 7.5, 14 days, 40°C) [%]	Chemical stability at pH 7.5 after 28 days at 40°C (% degradation) ([2]; pH 7.5, 28 days, 40°C) [%]	Solubility pH 7.5, target conc. =10 mg/mL (measured mg/mL) [3] [mg/mL]	Selectivity ratio (hCRHR1/ hCRHR2) (hCRHR2; Table 5)	EC50 (hCRHR2; Table 5, purified peptides) [nM]	MRT (PK in rats)	T½ (PK in rats)	EC50 (hCRHR1; Table 5, purified peptides) [nM]	Fibrillation (pH 7.5) ([1]; pH 7.5, ThT assay)	Chemical stability at pH 7.5 after 14 days at 40°C (% degradation) [2, 5] [%]	Chemical stability at pH 7.5 after 28 days at 40°C (% degradation) [2, 6] [%]	Selectivity ratio (hCRHR1/ hCRHR2) (hCRHR2; hCRHR1-EC50/hCRHR2-EC50)	EC50 (hCRHR2; [7]) [nM]	EC50 (hCRHR1; [8]) [nM]	PD (%) [4, 9] [%]	Rh (nm) [4, 9] [nm]	PD (%) [4, 10]	Rh (nm) [4, 10] [nm]
CCCC[C@H](NC(=O)[C@@H](NC(=O)[C@H](CCC(=O)O)NC(=O)C(C)(C)NC(=O)[C@H](CC(N)=O)NC(=O)[C@@H](NC(=O)[C@H](CCCCNC(=O)COCCOCCNC(=O)COCCOCCNC(=O)CC[C@H](NC(=O)CC[C@H](NC(=O)CCCCCCCCCCCCCCCCCCC(=O)O)C(=O)O)C(=O)O)NC(=O)[C@H](C)NC(=O)[C@H](CCC(N)=O)NC(=O)[C@H](CCC(=O)O)NC(=O)[C@H](CCCNC(=N)N)NC(=O)[C@H](C)NC(=O)[C@H](C)NC(=O)[C@H](CCCNC(=N)N)NC(=O)[C@H](C)NC(=O)[C@H](CCCNC(=N)N)NC(=O)[C@H](C)NC(=O)[C@H](CCC(N)=O)NC(=O)[C@H](CO)NC(=O)[C@H](CC(C)C)NC(=O)[C@H](CC(C)C)NC(=O)[C@@H](NC(=O)[C@H](CCC(N)=O)NC(=O)[C@H](CC(C)C)NC(=O)[C@H](CC(C)C)NC(=O)CNC(=O)[C@@H](NC(=O)[C@@H]1CCCN1C(=O)[C@@H](NC(=O)[C@H](CC(=O)O)NC(=O)[C@H](CC(C)C)NC(=O)[C@H](CO)NC(=O)[C@H](CC(C)C)NC(=O)[C@@H](NC(=O)[C@@H](N)[C@@H](C)CC)C(C)C)C(C)C)[C@@H](C)CC)[C@@H](C)CC)[C@@H](C)O)[C@@H](C)CC)C(=O)N[C@@H](C)C(=O)N[C@@H](CCC(=O)O)C(=O)N[C@H](C(N)=O)C(C)C [compound 234] (H-IVLSLDVPIGLLQILLSQARARAAREQAK([AEEA-AEEA-γGlu-γGlu-C20 diacid])TN[Aib]EI[Nle]AEV-NH2)	No	-0.43	-1.1	11	>6250	0.8	5.1	4.1	> 5000	–	–	–	–	–	–	–	–	–	–
CC[C@H](C)[C@H](N)C(=O)N[C@H](C(=O)N[C@@H](CC(C)C)C(=O)N[C@@H](CO)C(=O)N[C@@H](CC(C)C)C(=O)N[C@@H](CC(=O)O)C(=O)N[C@H](C(=O)N1CCC[C@H]1C(=O)N[C@H](C(=O)NCC(=O)N[C@@H](CC(C)C)C(=O)N[C@@H](CC(C)C)C(=O)N[C@@H](CCC(N)=O)C(=O)N[C@H](C(=O)N[C@@H](CC(C)C)C(=O)N[C@@H](CC(C)C)C(=O)N[C@@H](CCC(=O)O)C(=O)N[C@@H](CCC(N)=O)C(=O)N[C@@H](C)C(=O)N[C@@H](CCCNC(=N)N)C(=O)N[C@@H](C)C(=O)N[C@@H](CCCNC(=N)N)C(=O)N[C@@H](C)C(=O)N[C@@H](C)C(=O)N[C@@H](CCCNC(=N)N)C(=O)N[C@@H](CCC(=O)O)C(=O)N[C@@H](CCC(N)=O)C(=O)N[C@@H](C)C(=O)N[C@@H](CCCCNC(=O)COCCOCCNC(=O)COCCOCCNC(=O)CC[C@H](NC(=O)CC[C@H](NC(=O)CCCCCCCCCCCCCCCCCCC(=O)O)C(=O)O)C(=O)O)C(=O)N[C@H](C(=O)N[C@@H](CC(N)=O)C(=O)NC(C)(C)C(=O)N[C@@H](CCC(=O)O)C(=O)N[C@H](C(=O)N[C@@H](CC(C)C)C(=O)N[C@@H](C)C(=O)N[C@@H](CCC(=O)O)C(=O)N[C@H](C(N)=O)C(C)C)[C@@H](C)CC)[C@@H](C)O)[C@@H](C)CC)[C@@H](C)CC)C(C)C)C(C)C [SEQ ID NO: 15] (H-IVLSLDVPIGLLQILLEQARARAAREQAK([AEEA-AEEA-γGlu-γGlu-C20 diacid])TN[Aib]EILAEV-NH2)	–	–	–	9.8	–	–	8	7.7	–	No	-1.0	-1.2	>2174	2.3	> 5000	–	–	–	–
Liraglutide pH 8.2	–	–	–	–	–	–	–	–	–	–	–	–	–	–	–	1.4	2.1	3.8%	2.1
CC[C@H](C)[C@H](N)C(=O)N[C@H](C(=O)N[C@@H](CC(C)C)C(=O)N[C@@H](CO)C(=O)N[C@@H](CC(C)C)C(=O)N[C@@H](CC(=O)O)C(=O)N[C@H](C(=O)N1CCC[C@H]1C(=O)N[C@H](C(=O)NCC(=O)N[C@@H](CC(C)C)C(=O)N[C@@H](CC(C)C)C(=O)N[C@@H](CCC(N)=O)C(=O)N[C@H](C(=O)N[C@@H](CC(C)C)C(=O)N[C@@H](CC(C)C)C(=O)N[C@@H](CCC(=O)O)C(=O)N[C@@H](CCC(N)=O)C(=O)N[C@@H](C)C(=O)N[C@@H](CCCNC(=N)N)C(=O)N[C@@H](C)C(=O)N[C@@H](CCCNC(=N)N)C(=O)N[C@@H](C)C(=O)N[C@@H](C)C(=O)N[C@@H](CCCNC(=N)N)C(=O)N[C@@H](CCC(=O)O)C(=O)N[C@@H](CCC(N)=O)C(=O)N[C@@H](C)C(=O)N[C@@H](CCCCNC(=O)COCCOCCNC(=O)COCCOCCNC(=O)CC[C@H](NC(=O)CC[C@H](NC(=O)CCCCCCCCCCCCCCCCCCC(=O)O)C(=O)O)C(=O)O)C(=O)N[C@H](C(=O)N[C@@H](CC(N)=O)C(=O)N[C@H](C(=O)N[C@@H](CCC(=O)O)C(=O)N[C@H](C(=O)N[C@@H](CC(C)C)C(=O)N[C@@H](C)C(=O)N[C@@H](CCC(=O)O)C(=O)N[C@H](C(N)=O)C(C)C)[C@@H](C)CC)C(C)C)[C@@H](C)O)[C@@H](C)CC)[C@@H](C)CC)C(C)C)C(C)C [SEQ ID NO: 14] (H-IVLSLDVPIGLLQILLEQARARAAREQAK([AEEA-AEEA-γGlu-γGlu-C20 diacid])TNVEILAEV-NH2)	–	–	–	9.2	–	–	6.1	5.1	–	No	-0.3	-1.2	> 1000	5	> 5000	–	–	–	–
liraglutide	–	–	–	–	–	–	–	–	–	–	–	–	–	–	–	6.0	2.5	Multimodal	5.6
